According to US8952176B2, “Heterocyclic compound having type I 11 β hydroxysteroid dehydrogenase inhibitory activity” (Shionogi & Co., Ltd., priority 2005, dated 2015):

Columns and labels:
[1] = biological target: recombinant mouse 11β-HSD1 (Mus musculus, UniProt P50172); test: Enzyme activity assay on mouse 11β-HSD1 (HTRF corticosterone); assay type: biochemical; conditions: recombinant mouse 11β-HSD1, 11-dehydrocorticosterone substrate, 2 hours at 37° C.
Procedure: […] (Enzyme Activity Assay on Mouse 11β-HSD1)
Enzymatic activity for mouse 11β-HSD1 activity was determined in a 10 μl final volume of assay mixture containing 50 mM sodium phosphate buffer (pH 7.6), 1 mg/ml bovine serum albumin, 0.042 mg/ml NADPH, 1.26 mg/ml glucose-6-phosphate, glucose-6-phosphate dehydrogenase, test compound, recombinant mouse 11β-HSD1, and […] 11-dehydrocorticosterone as substrate. The reaction was started with the addition of 11-dehydrocorticosterone. After incubation for 2 hours at 37° C., 5 μl of europium cryptate-labelled anti-cortisol antibody and 5 μl of XL665-labeled cortisol were added. After further incubation for 2 hours at room temperature, the HTFR signal was measured. The corticosterone production was quantitated by a standard curve generated with several known concentrations of corticosterone in each assay.
Corticosterone production without compounds was served as control, and the percent inhibition by compound at each concentration was calculated. The IC50 value of the compound for 11β-HSD1 was obtained using the inhibition curve generated by plotting the percent inhibition versus the concentration of test compound.

[2] = biological target: recombinant human 11β-HSD1 (Homo sapiens, UniProt P28845); test: Enzyme activity assay on human 11β-HSD1 (HTRF cortisol); assay type: biochemical; conditions: recombinant human 11β-HSD1, 5 μM cortisone, 2 hours at 37° C.
Procedure: Evaluation of 11β-HSD1 Inhibitors (Enzyme Activity Assay on Human 11β-HSD1)
Enzymatic activity for human 11β-HSD1 was determined in a 10 μl final volume of assay mixture containing 50 mM sodium phosphate buffer (pH 7.6), 1 mg/ml bovine serum albumin, 0.42 mg/ml NADPH, 1.26 mg/ml glucose-6-phosphate, glucose-6-phosphate dehydrogenase, test compound, recombinant human 11β-HSD1, and 5 μM cortisone as substrate. The reaction was started with the addition of cortisone. After incubation for 2 hours at 37° C., 5 μl of europium cryptate-labelled anti-cortisol antibody and 5 μl of XL665-labeled cortisol were added. After further incubation for 2 hours at room temperature, the homogeneous time-resolved fluorescence (HTRF) signal was measured. The cortisol production was quantitated by a standard curve generated with several known concentrations of cortisol in each assay.
The amount of cortisol production without compounds was served as control, and the percent inhibition by test compound at each concentration was calculated. The IC50 value of the compound for 11β-HSD1 was obtained using the inhibition curve generated by plotting the percent inhibition versus the concentration of text compound.

recombinant human 11β-HSD1, sequence (P28845 whole entry): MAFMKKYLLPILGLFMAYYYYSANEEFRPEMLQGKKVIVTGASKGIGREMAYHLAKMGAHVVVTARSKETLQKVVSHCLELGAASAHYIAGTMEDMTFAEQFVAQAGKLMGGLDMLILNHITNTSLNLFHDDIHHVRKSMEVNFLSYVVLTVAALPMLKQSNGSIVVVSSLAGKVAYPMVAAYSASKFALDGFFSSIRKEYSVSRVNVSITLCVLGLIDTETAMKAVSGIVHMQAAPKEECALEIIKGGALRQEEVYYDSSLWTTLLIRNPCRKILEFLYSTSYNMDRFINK
recombinant mouse 11β-HSD1, sequence (P50172 whole entry): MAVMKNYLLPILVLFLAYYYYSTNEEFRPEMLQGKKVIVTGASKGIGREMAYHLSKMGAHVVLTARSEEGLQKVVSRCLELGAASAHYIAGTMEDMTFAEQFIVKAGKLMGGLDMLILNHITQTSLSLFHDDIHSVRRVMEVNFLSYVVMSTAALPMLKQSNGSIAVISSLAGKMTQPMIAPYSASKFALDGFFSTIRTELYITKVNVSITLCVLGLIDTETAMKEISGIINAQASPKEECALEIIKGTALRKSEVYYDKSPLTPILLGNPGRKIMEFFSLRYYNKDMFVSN

SMILES | IC50 [1] [µM] | IC50 [2] [µM]
Cc1noc(C(=O)NC23CC4CC(CC(C4)C2)C3)c1SC1CCCCC1 [Compound A-12] | 6 | 0.08
COc1noc(C(=O)c2ccccc2)c1S(=O)(=O)c1ccccc1 [Compound A-20] | 5.9 | 0.093
Cc1noc(C(=O)c2ccccc2)c1SC1CCCCC1 [Compound A-15] | 11.6 | 0.016

Next, values leading:

IC50 [1] [µM] | IC50 [2] [µM] | SMILES
21 | 0.084 | Cc1noc(C(=O)NC23CC4CC(CC(C4)C2)C3)c1Sc1ccccc1 [Compound A-1]
21 | 0.015 | Cc1noc(C(=O)NC23CC4CC(CC(C4)C2)C3)c1SC1CCCCCC1 [Compound A-21]
